# Measurements as given in US6958345B2, “2-hydroxymethylcyclopropylidene methylpurines and -pyrimidines as antiviral agents” (The Regents of the University of Michigan, priority 1997, dated 2005).
# Tested on: HHV-6
# Test: HHV-6 ELISA in HSB-2 cells
# Format: cell-based, human herpes virus 6 (HHV 6)
# Conditions: Homo sapiens, HSB2
# Method: (c) HHV-6. In this case, enzyme-linked immunosorbent assay (ELISA) was performed in covalent amine plates (Costar, Cambridge, Mass.). The plates were activated by the addition of a homobifunctional crosslinking agent, bis(sulfosuccinimidyl) suberate, which was dissolved at 1 mg/mL in 30 mL of phosphate buffered saline (PBS: 137 mM NaCl, 2.7 mM KCl, 4.3 mM Na2HPO4, 1.4 mM KH2PO4, pH 7.4) and 300 μL of the crosslinker was added to each well in the covalent plate. The crosslinker reacted with the amine function on the plate for 30 min at room temperature. The byproduct, sodium N-hydroxysuccinimide sulfite, was removed by decanting and washing the plate twice with PBS. Samples consisting of 150 μl of mixed suspended HSB2 cells from the original drug-treated plate were solubilized in an equal volume of 10% Triton X-100 in coating buffer (15 mM Na2CO3, […] NaHCO3, pH 9.6). The plate was covered and then incubated for 1 h at 37° C. in a 5% CO2 atmosphere. These binding conditions facilitated covalent attachment of the antigen to the free end of the crosslinker.
# After covalent binding, the antigen solution was decanted and the plate was washed six times in HEPES buffered saline (Shipman, C., Jr., Proc. Soc. Exp. Biol. 130:305-310 (1969)) with 0.05% Tween 20 (HBS-T ), soaking for three min for each wash. […] Absorbance in each well was determined at 450/570 nm.
smiles,measurement,value
"O=C(O)P(=O)(O)O [Foscarnet, reference compound]",IC50,15 µM
